Measured values published in US8962608B2, “Cycloalkylnitrile pyrazole carboxamides as janus kinase inhibitors” (Merck Sharp & Dohme Corp., priority 2011, dated 2015).

Columns and labels:
[1] = target: JAK1 (recombinant purified GST-tagged catalytic domain) (Homo sapiens (Human), UniProt P23458); assay: biochemical;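 further: biochemical assay with HTRF read-out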
[2] = target: JAK2 (recombinant purified GST-tagged catalytic domain) (Homo sapiens (Human), UniProt O60674); assay: biochemical;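 further: biochemical JAK kinase assay with HTRF detection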
Sequence of JAK2 (recombinant purified GST-tagged catalytic domain) (O60674 849-1124): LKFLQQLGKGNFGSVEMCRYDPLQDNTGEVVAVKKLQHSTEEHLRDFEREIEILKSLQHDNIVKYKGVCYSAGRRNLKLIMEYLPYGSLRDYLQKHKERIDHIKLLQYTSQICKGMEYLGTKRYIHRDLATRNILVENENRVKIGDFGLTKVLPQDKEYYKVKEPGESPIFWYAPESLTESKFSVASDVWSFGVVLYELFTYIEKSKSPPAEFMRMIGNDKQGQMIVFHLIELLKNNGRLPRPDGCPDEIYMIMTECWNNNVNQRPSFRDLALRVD

Sequence of JAK1 (recombinant purified GST-tagged catalytic domain) (P23458 875-1153): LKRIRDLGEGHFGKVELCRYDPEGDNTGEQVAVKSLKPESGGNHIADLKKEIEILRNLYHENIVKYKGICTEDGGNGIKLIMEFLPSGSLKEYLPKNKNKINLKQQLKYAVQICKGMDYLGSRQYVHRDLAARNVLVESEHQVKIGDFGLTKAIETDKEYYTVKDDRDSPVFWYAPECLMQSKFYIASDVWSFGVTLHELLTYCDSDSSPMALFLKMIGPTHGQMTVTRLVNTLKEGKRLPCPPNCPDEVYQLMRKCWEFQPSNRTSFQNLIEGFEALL

## N#C[C@H]1C[C@@H](O)CC[C@@H]1n1cc(C(N)=O)c(Nc2ccc([C@H](O)C(F)(F)F)cc2)n1 (single isomer, unassigned) [Example 33-10, 1-[(1S,2S,4S or 1R,2R,4R)-2-cyano-4-hydroxycyclohexyl]-3-({4-[(1S)-2,2,2-trifluoro-1-hydroxyethyl]phenyl}amino)-1H-pyrazole-4-carboxamide]
[1]
  IC50: 0.3 nM
[2]
  IC50: 2 nM

## N#C[C@H]1C[C@H](O)CC[C@@H]1n1cc(C(N)=O)c(Nc2ccc(OC(F)(F)F)cc2)n1 (single isomer, unassigned) [Example 24, 1-((1S,2S or 1R,2R)-2-cyano-4(R)-hydroxycyclohexyl)-3-((4-(trifluoromethoxy)phenyl)amino)-1H-pyrazole-4-carboxamide]
[1]
  IC50: 6 nM
[2]
  IC50: 61 nM

## N#C[C@H]1CCCC[C@@H]1n1cc(C(N)=O)c(Nc2cnc3c(c2)CNC3=O)n1 (single isomer, unassigned) [Example 17-76, 1-[(1R,2R or 1S,2S)-2-cyanocyclohexyl]-3-[(7-oxo-6,7-dihydro-5H-pyrrolo[3,4-b]pyridin-3-yl)amino]-1H-pyrazole-4-carboxamide]
[1]
  IC50: 0.55 nM
[2]
  IC50: 7 nM

## N#Cc1ccc(Nc2nn([C@H]3CCCC[C@H]3C#N)cc2C(N)=O)cc1 (racemic) [Example 17-16, 1-[(1S,2R and 1R,2S)-2-cyanocyclohexyl]-3-[(4-cyanophenyl)amino]-1H-pyrazole-4-carboxamide]
[1]
  IC50: 11 nM
[2]
  IC50: 36 nM

## N#C[C@H]1C[C@@H](O)CC[C@@H]1n1cc(C(N)=O)c(Nc2ccc(C(F)F)nc2)n1 (single isomer, unassigned) [Example 33-8, 1-[(1S,2S,4S or 1R,2R,4R)-2-cyano-4-hydroxycyclohexyl)-3-{I6-(difluoromethyl)pyridin-3-yl]amino}-1H-pyrazole-4-carboxamide]
[1]
  IC50: 8 nM
[2]
  IC50: 33 nM

## N#C[C@H]1CCCC[C@@H]1n1cc(C(N)=O)c(Nc2ccc(S(=O)(=O)NCc3cccnc3)cc2)n1 (single isomer, unassigned) [Example 17-84, 1-[(1R,2R or 1S,2S)-2-cyanocyclohexyl]-3-({4-[(pyridin-3-ylmethyl)sulfamoyl]phenyl}amino)-1H-pyrazole-4-carboxamide]
[1]
  IC50: 0.3 nM
[2]
  IC50: 1 nM

## N#C[C@H]1CCCC[C@@H]1n1cc(C(N)=O)c(Nc2ccc(S(=O)(=O)Nc3ccncc3)cc2)n1 (single isomer, unassigned) [Example 17-81, 1-[(1R,2R or 1S,2S)-2-cyanocyclohexyl]-3-{[4-(pyridin-4-ylsulfamoyl)phenyl]amino}-1H-pyrazole-4-carboxamide]
[1]
  IC50: 0.35 nM
[2]
  IC50: 2 nM

## N#C[C@H]1C[C@H](N2CC3(CCC3)C2)CC[C@@H]1n1cc(C(N)=O)c(Nc2ccnc(F)c2)n1 (single isomer, unassigned) [Example 28-143, 1-[(1S,2S,4R or 1R,2R,4S)-4-(2-azaspiro[3.3]hept-2-yl)-2-cyanocyclohexyl]-3-[(2-fluoropyridin-4-yl)amino]-1H-pyrazole-4-carboxamide]
[1]
  IC50: 1 nM
[2]
  IC50: 122 nM

## N#C[C@H]1C[C@H](N2CCC2)CC[C@@H]1n1cc(C(N)=O)c(Nc2ccc(C(F)F)nc2)n1 (single isomer, unassigned) [Example 28-50, 1-[(1S,2S,4R or 1R,2R,4S)-4-azetidin-1-yl-2-cyanocyclohexyl]-3-{[6-(difluoromethyl)pyridin-3-yl]amino}-1H-pyrazole-4-carboxamide]
[1]
  IC50: 2 nM
[2]
  IC50: 47 nM

## N#C[C@H]1CCCCC1n1cc(C(N)=O)c(Nc2ccc(-c3cn[nH]c3)nc2)n1 (mixture of isomers) [Example 21-3, 1-[(1S,2S and 1R,2R)-2-cyanocyclohexyl]-3-{[6-(1H-pyrazol-4-yl)pyridin-3-yl]amino}-1H-pyrazole-4-carboxamide]
[1]
  IC50: 2 nM
[2]
  IC50: 16 nM

## CC1(C)CN([C@H]2CC[C@H](n3cc(C(N)=O)c(Nc4ccccc4)n3)[C@@H](C#N)C2)C1 (single isomer, unassigned) [Example 28-138, 1-[(1S,2S,4S or 1R,2R,4R)-2-cyano-4-(3,3-dimethylazetidin-1-yl)cyclohexyl]-3-(phenylamino)-1H-pyrazole-4-carboxamide]
[1]
  IC50: 0.9 nM
[2]
  IC50: 40 nM

## COc1cccc(N2CCN(S(=O)(=O)c3ccc(Nc4nn([C@H]5CCCC[C@@H]5C#N)cc4C(N)=O)cc3)CC2)c1 (single isomer, unassigned) [Example 17-97, 1-[(1R,2R or 1S,2S)-2-cyanocyclohexyl]-3-[(4-{[4-(3-methoxyphenyl)piperazin-1-yl]sulfonyl}phenyl)amino]-1H-pyrazole-4-carboxamide]
[1]
  IC50: 9 nM
[2]
  IC50: 24 nM

## N#C[C@H]1C[C@@H](OC(=O)NC2CCCCC2)CCC1n1cc(C(N)=O)c(Nc2ccc(F)cc2)n1 (mixture of isomers) [Example 34-2, (1S,3S,4S and 1R,3R,4R)-4-{4-carbamoyl-3-[(4-fluorophenyl)amino]-1H-pyrazol-1-yl}-3-cyanocyclohexyl cyclohexylcarbamate]
[1]
  IC50: 5 nM
[2]
  IC50: 164 nM

## COC(C)(C)CN[C@H]1CCC(n2cc(C(N)=O)c(Nc3ccc(Cl)cc3)n2)[C@@H](C#N)C1 (single isomer, unassigned) [Example 28-228, 3-[(4-chlorophenyl)amino]-1-{(1S,2S,4S or 1R,2R,4R)-2-cyano-4-[(2-methoxy-2-methylpropyl)amino]cyclo-hexyl}-1H-pyrazole-4-carboxamide]
[1]
  IC50: 2 nM
[2]
  IC50: 48 nM

## CS(=O)(=O)C1CN(C(=O)[C@@H]2CC[C@@H](n3cc(C(N)=O)c(Nc4ccc(Cl)cc4)n3)[C@H](C#N)C2)C1 (single isomer, unassigned) [Example 35-8, 3-[(4-chlorophenyl)amino]-1-[(1R,2R,4R or 1S,2S,4S)-2-cyano-4-{[3-(methylsulfonyl)azetidin-1-yl]carbonyl}cyclohexyl]-1H-pyrazole-4-carboxamide]
[1]
  IC50: 3 nM
[2]
  IC50: 19 nM

## N#C[C@H]1CCCC[C@@H]1n1cc(C(N)=O)c(Nc2ccc(S(=O)(=O)NCCN3CCCC3)cc2)n1 (single isomer, unassigned) [Example 17-87, 1-[(1R,2R or 1S,2S)-2-cyanocyclohexyl]-3-({4-[(2-pyrrolidin-1-ylethyl)sulfamoyl]phenyl}amino)-1H-pyrazole-4-carboxamide]
[1]
  IC50: 0.5 nM
[2]
  IC50: 2 nM

## CC1(N[C@H]2CCC(n3cc(C(N)=O)c(Nc4ccccc4)n3)[C@@H](C#N)C2)CC1 (single isomer, unassigned) [Example 28-216, 1-{(1S,2S,4S or 1R,2R,4R)-2-cyano-4-[(1-methylcyclopropyl)amino]cyclo-hexyl}-3-(phenylamino)-1H-pyrazole-4-carboxamide]
[1]
  IC50: 2 nM
[2]
  IC50: 24 nM

## CC(C)(O)[C@H]1CC[C@H](n2cc(C(N)=O)c(Nc3ccc(Cl)cc3)n2)[C@@H](C#N)C1 (single isomer, unassigned) [Example 36-2, 3-(4-chlorophenylamino)-1-((1R,2R,4R or 1S,2S,4S)-2-cyano-4-(2-hydroxypropan-2-yl)cyclohexyl)-1H-pyrazole-4-carboxamide]
[1]
  IC50: 3 nM
[2]
  IC50: 20 nM

## N#C[C@H]1CCCC[C@@H]1n1cc(C(N)=O)c(Nc2ccc(Cl)cc2)n1 (single isomer, unassigned) [Example 17-108, 3-[(4-chlorophenyl)amino]-1-[(1S,2S or 1R,2R)-2-cyanocyclohexyl]-1H-pyrazole-4-carboxamide]
[1]
  IC50: 8 nM
[2]
  IC50: 120 nM

## N#C[C@H]1CCCC(F)[C@@H]1n1cc(C(N)=O)c(Nc2ccccc2)n1 (mixture of isomers) [Example 23-1, 1-[(1R,2S and 1S,2R)-2-Cyano-6-fluorocyclohexyl]-3-(phenylamino)-1H-pyrazole-4-carboxamide]
[1]
  IC50: 5 nM
[2]
  IC50: 60 nM

## C[C@H](N[C@H]1CC[C@H](n2cc(C(N)=O)c(Nc3ccc(Cl)cc3)n2)[C@@H](C#N)C1)C1CC1 (single isomer, unassigned) [Example 28-119, 3-[(4-chlorophenyl)amino]-1-[(1S,2S,4S or 1R,2R,4R)-2-cyano-4-{[(1R)-1-cyclopropylethyl]amino}cyclo-hexyl]-1H-pyrazole-4-carboxamide]
[1]
  IC50: 1 nM
[2]
  IC50: 85 nM

## CC(C)(O)C1CN(C(=O)[C@@H]2CC[C@@H](n3cc(C(N)=O)c(Nc4ccc(Cl)cc4)n3)[C@H](C#N)C2)C1 (single isomer, unassigned) [Example 35-3, 3-[(4-chlorophenyl)amino]-1-[(1R,2R,4R or 1S,2S,4S)-2-cyano-4-{[3-(1-hydroxy-1-methylethyl)azetidin-1-yl]carbonyl}cyclohexyl]-1H-pyrazole-4-carboxamide]
[1]
  IC50: 9 nM
[2]
  IC50: 59 nM

## N#C[C@H]1C[C@H](N[C@@H](C2CC2)C(F)(F)F)CC[C@@H]1n1cc(C(N)=O)c(Nc2ccc(C(F)(F)F)cc2)n1 (single isomer, unassigned) [Example 28-195, 1-[(1S,2S,4R or 1R,2R,4S)-2-cyano-4-{[(1R)-1-cyclopropyl-2,2,2-trifluoroethyl]amino}cyclo-hexyl]-3-{[4-(trifluoromethyl)phenyl]amino}-1H-pyrazole-4-carboxamide]
[1]
  IC50: 177 nM
[2]
  IC50: 375 nM

## CS(=O)(=O)N[C@@H]1CC[C@H](n2cc(C(N)=O)c(Nc3ccc(Cl)cc3)n2)[C@@H](C#N)C1 (racemic) [Example 38-3, 3-[(4-chlorophenyl)amino]-1-{(1S,2S,4R and 1R,2R,4S)-2-cyano-4-[(methylsulfonyl)amino]cyclohexyl}-1H-pyrazole-4-carboxamide]
[1]
  IC50: 0.9 nM
[2]
  IC50: 8 nM

## CN[C@H]1CC[C@H](n2cc(C(N)=O)c(Nc3ccc(Cl)cc3)n2)[C@@H](C#N)C1 (single isomer, unassigned) [Example 28-40, 3-[(4-chlorophenyl)amino]-1-[(1S,2S,4S or 1R,2R,4R)-2-cyano-4-(methylamino)cyclohexyl]-1H-pyrazole-4-carboxamide]
[1]
  IC50: 0.7 nM
[2]
  IC50: 16 nM
